From ChEMBL document CHEMBL4270599, “Synthesis of a 3'-C-ethynyl-β-d-ribofuranose purine nucleoside library: Discovery of C7-deazapurine analogs as potent antiproliferative nucleosides” (Eur J Med Chem, 2018)

Columns and labels:
[1] = test system: SR; assay: Cytotoxicity against human SR cells after 48 hrs by SRB assay; type: functional; conditions: for GI50: read-out: GI50; for CC50: read-out: pLC50 (the source's name) (converted)
[2] = test system: UACC-257; assay: Growth inhibition of human UACC257 cells assessed as cell growth at 10^-7 M incubated for 48 hrs by sulforhodamine B assay relative to control; type: functional; conditions: UACC-257, 48 h, read-out: Activity
[3] = test system: PC-3; assay: Growth inhibition of human PC3 cells assessed as cell growth at 10^-6 M incubated for 48 hrs by sulforhodamine B assay relative to control; type: functional; conditions: PC-3, 48 h, read-out: Activity
[4] = test system: K562; assay: Growth inhibition of human K562 cells assessed as cell growth at 10^-4 M incubated for 48 hrs by sulforhodamine B assay relative to control; type: functional; conditions: K562, 48 h, read-out: Activity
[5] = test system: HCT-15; assay: Cytotoxicity against human HCT15 cells after 48 hrs by SRB assay; type: functional; conditions: HCT-15, 48 h; for GI50: read-out: GI50
[6] = test system: MOLT-4; assay: Growth inhibition of human MOLT4 cells assessed as cell growth at 10^-7 M incubated for 48 hrs by sulforhodamine B assay relative to control; type: functional; conditions: MOLT-4, 48 h, read-out: Activity
[7] = test system: MDA-MB-231; assay: Cytotoxicity against human MDA-MB-231 cells after 48 hrs by SRB assay; type: functional; conditions: MDA-MB-231, 48 h; for GI50: read-out: GI50; for CC50: read-out: LC50 (the source's name)
[8] = Antiproliferative activity against HELF cells after 4 days by Coulter counter method; type: cell-based; conditions: Homo sapiens, 96 h
[9] = test system: SK-MEL-28; assay: Growth inhibition of human SK-MEL-28 cells assessed as cell growth at 10^-8 M incubated for 48 hrs by sulforhodamine B assay relative to control; type: functional; conditions: SK-MEL-28, 48 h, read-out: Activity
[10] = test system: SN12C; assay: Growth inhibition of human SN12C cells assessed as cell growth at 10^-6 M incubated for 48 hrs by sulforhodamine B assay relative to control; type: functional; conditions: read-out: Activity
[11] = test system: SNB-19; assay: Growth inhibition of human SNB19 cells assessed as cell growth at 10^-7 M incubated for 48 hrs by sulforhodamine B assay relative to control; type: functional; conditions: SNB-19, 48 h, read-out: Activity
[12] = test system: SN12C; assay: Growth inhibition of human SN12C cells assessed as cell growth at 10^-4 M incubated for 48 hrs by sulforhodamine B assay relative to control; type: functional; conditions: read-out: Activity
[13] = test system: OVCAR-3; assay: Growth inhibition of human OVCAR3 cells assessed as cell growth at 10^-7 M incubated for 48 hrs by sulforhodamine B assay relative to control; type: functional; conditions: OVCAR-3, 48 h, read-out: Activity
[14] = test system: RXF 393; assay: Growth inhibition of human RXF393 cells assessed as cell growth at 10^-7 M incubated for 48 hrs by sulforhodamine B assay relative to control; type: functional; conditions: RXF 393, 48 h, read-out: Activity
[15] = test system: MDA-MB-435; assay: Growth inhibition of human MDA-MB-435 cells assessed as cell growth at 10^-7 M incubated for 48 hrs by sulforhodamine B assay relative to control; type: functional; conditions: MDA-MB-435, 48 h, read-out: Activity
[16] = test system: TK-10; assay: Growth inhibition of human TK10 cells assessed as cell growth at 10^-8 M incubated for 48 hrs by sulforhodamine B assay relative to control; type: functional; conditions: TK-10, 48 h, read-out: Activity
[17] = test system: SF-295; assay: Growth inhibition of human SF295 cells assessed as cell growth at 10^-8 M incubated for 48 hrs by sulforhodamine B assay relative to control; type: functional; conditions: SF-295, 48 h, read-out: Activity
[18] = test system: HL-60(TB); assay: Cytotoxicity against human HL-60(TB) cells after 48 hrs by SRB assay; type: functional; conditions: HL-60, 48 h; for GI50: read-out: GI50; for TGI: read-out: TGI; for CC50: read-out: pLC50 (the source's name) (converted)
[19] = test system: SK-OV-3; assay: Cytotoxicity against human SKOV3 cells after 48 hrs by SRB assay; type: functional; conditions: SK-OV-3, 48 h; for GI50: read-out: GI50; for CC50: read-out: LC50 (the source's name)
[20] = test system: NCI/ADR-RES; assay: Cytotoxicity against human NCI-ADR-RES cells after 48 hrs by SRB assay; type: functional; conditions: for GI50: read-out: GI50; for CC50: read-out: pLC50 (the source's name) (converted)
[21] = test system: SNB-75; assay: Growth inhibition of human SNB75 cells assessed as cell growth at 10^-7 M incubated for 48 hrs by sulforhodamine B assay relative to control; type: functional; conditions: SNB-75, 48 h, read-out: Activity
[22] = test system: SK-MEL-2; assay: Growth inhibition of human SK-MEL-2 cells assessed as cell growth at 10^-8 M incubated for 48 hrs by sulforhodamine B assay relative to control; type: functional; conditions: SK-MEL-2, 48 h, read-out: Activity
[23] = test system: SK-MEL-2; assay: Growth inhibition of human SK-MEL-2 cells assessed as cell growth at 10^-7 M incubated for 48 hrs by sulforhodamine B assay relative to control; type: functional; conditions: SK-MEL-2, 48 h, read-out: Activity
[24] = test system: UACC-257; assay: Growth inhibition of human UACC257 cells assessed as cell growth at 10^-8 M incubated for 48 hrs by sulforhodamine B assay relative to control; type: functional; conditions: UACC-257, 48 h, read-out: Activity
[25] = test system: SN12C; assay: Growth inhibition of human SN12C cells assessed as cell growth at 10^-5 M incubated for 48 hrs by sulforhodamine B assay relative to control; type: functional; conditions: read-out: Activity
[26] = test system: IGROV-1; assay: Growth inhibition of human IGROV1 cells assessed as cell growth at 10^-4 M incubated for 48 hrs by sulforhodamine B assay relative to control; type: functional; conditions: IGROV-1, 48 h, read-out: Activity
[27] = test system: Hs-578T; assay: Growth inhibition of human Hs 578T cells assessed as cell growth at 10^-5 M incubated for 48 hrs by sulforhodamine B assay relative to control; type: functional; conditions: read-out: Activity
[28] = test system: PC-3; assay: Growth inhibition of human PC3 cells assessed as cell growth at 10^-5 M incubated for 48 hrs by sulforhodamine B assay relative to control; type: functional; conditions: PC-3, 48 h, read-out: Activity
[29] = test system: SW-620; assay: Growth inhibition of human SW620 cells assessed as cell growth at 10^-5 M incubated for 48 hrs by sulforhodamine B assay relative to control; type: functional; conditions: SW-620, 48 h, read-out: Activity

C#C[C@@]1(O)[C@@H](CO)O[C@@H](n2cc(Cl)c3c(N)ncnc32)[C@@H]1O
GI50 [1]: 0.0611 to 0.0873 µM | TGI ([1]; read-out: TGI): > 100 µM | CC50 [1]: > 100 µM | TGI ([1]; read-out: pTGI): > 100 µM | growth at 0.1 µM [2]: 79 to 90% | growth at 1 µM [3]: 9 to 11% | growth at 100 µM [4]: 7 to 8% | GI50 [5]: 0.134 to 0.152 µM | TGI ([5]; read-out: TGI): > 100 µM | CC50 ([5]; read-out: pLC50 (the source's name) (converted)): > 100 µM | TGI ([5]; read-out: pTGI (converted)): > 100 µM | growth at 0.1 µM [6]: 62 to 67% | GI50 [7]: 0.148 to 0.193 µM | CC50 [7]: > 100 µM | TGI ([7]; read-out: TGI): 0.893 to 1.01 µM | IC50 [8]: 0.0092 µM | growth at 0.01 µM [9]: 94% | growth at 1 µM [10]: 5 to 11% | growth at 0.1 µM [11]: 12 to 70% | growth at 100 µM [12]: 1% | growth at 0.1 µM [13]: 74 to 77% | growth at 0.1 µM [14]: 105 to 110% | growth at 0.1 µM [15]: 60 to 69% | growth at 0.01 µM [16]: 96 to 105% | growth at 0.01 µM [17]: 82 to 92% | GI50 [18]: 0.0341 to 0.084 µM | TGI [18]: 0.197 to 0.317 µM | CC50 [18]: > 100 µM | GI50 [19]: 0.119 to 0.171 µM | CC50 [19]: > 100 µM | TGI ([19]; read-out: TGI): 0.467 to 0.573 µM | GI50 [20]: 0.0506 to 0.0546 µM | TGI ([20]; read-out: TGI): 0.777 µM | CC50 [20]: > 100 µM | TGI ([20]; read-out: pTGI (converted)): 0.776 µM | growth at 0.1 µM [21]: 104 to 110% | growth at 0.01 µM [22]: 86 to 95% | growth at 0.1 µM [23]: 47 to 66% | growth at 0.01 µM [24]: 87 to 100%

C#C[C@@]1(O)[C@@H](CO)O[C@@H](n2cc(Br)c3c(N)ncnc32)[C@@H]1O
GI50 [1]: 0.0438 to 0.0845 µM | TGI ([1]; read-out: TGI): > 100 µM | CC50 [1]: > 100 µM | TGI ([1]; read-out: pTGI): > 100 µM | growth at 0.1 µM [2]: 70 to 93% | growth at 10 µM [25]: 1 to 3% | growth at 1 µM [3]: 8 to 12% | growth at 100 µM [4]: 7% | growth at 100 µM [26]: -2% | growth at 10 µM [27]: 3 to 9% | GI50 [5]: 0.172 to 0.707 µM | CC50 ([5]; read-out: LC50 (the source's name)): > 100 µM | TGI ([5]; read-out: TGI): > 100 µM | TGI ([5]; read-out: pTGI (converted)): > 100 µM | growth at 10 µM [28]: 3% | growth at 0.1 µM [6]: 44 to 66% | GI50 [7]: 0.056 to 0.215 µM | CC50 [7]: > 100 µM | TGI ([7]; read-out: TGI): > 100 µM | TGI ([7]; read-out: pTGI (converted)): > 100 µM | IC50 [8]: 0.017 µM | growth at 0.01 µM [9]: 93 to 96% | growth at 1 µM [10]: 7 to 13% | growth at 0.1 µM [11]: 6 to 71% | growth at 100 µM [12]: 1 to 5% | growth at 0.1 µM [13]: 62 to 72% | growth at 0.1 µM [14]: 81 to 103% | growth at 0.1 µM [15]: 51 to 70% | growth at 0.01 µM [16]: 100 to 106% | growth at 0.01 µM [17]: 90 to 96% | GI50 [18]: 0.0218 to 0.0716 µM | TGI [18]: 0.0757 to 0.313 µM | CC50 [18]: 5.25 µM | growth at 10 µM [29]: 4 to 5% | GI50 [19]: 0.0441 to 0.153 µM | CC50 [19]: > 100 µM | TGI ([19]; read-out: TGI): 0.439 µM | TGI ([19]; read-out: pTGI (converted)): 0.437 µM | GI50 [20]: 0.0451 to 0.0659 µM | TGI ([20]; read-out: TGI): 1.02 µM | CC50 [20]: > 100 µM | TGI ([20]; read-out: pTGI (converted)): 1.02 µM | growth at 0.1 µM [21]: 81 to 96% | growth at 0.01 µM [22]: 96 to 106% | growth at 0.1 µM [23]: 48 to 75% | growth at 0.01 µM [24]: 87 to 100%
